Numbered stars: 1 amine (or outer) side, 2 acyl side, 3 side chain; on linkers, the order of the positions; unused ones are H or OH. Bridge positions count the residues as written; N and C are the ends. Square brackets hold non-standard residues; d marks the D form. Peptide text beside a SMILES is read from it. * marks the point of attachment. ξ: configuration not given here. Phe(4-CONH2) = NC(=O)c1ccc(C[C@H](N)C(=O)O)cc1; Phe(4-COOH) = N[C@@H](Cc1ccc(C(=O)O)cc1)C(=O)O; Bip = N[C@@H](Cc1ccc(-c2ccccc2)cc1)C(=O)O; Phe(3-OMe) = COc1cccc(C[C@H](N)C(=O)O)c1; Phe(3-Me) = Cc1cccc(C[C@H](N)C(=O)O)c1; Val(3-OH) = CC(C)(O)[C@H](N)C(=O)O; X49 = O=C(C(N[*:1])C1CCOCC1)[*:2]; ξW = NC(Cc1c[nH]c2ccccc12)C(=O)O; 3Pal = N[C@@H](Cc1cccnc1)C(=O)O; 4Pal = N[C@@H](Cc1ccncc1)C(=O)O; Cha = N[C@@H](CC1CCCCC1)C(=O)O; Cit = NC(=O)NCCC[C@H](N)C(=O)O; Ile(3ξ) = CCC(C)[C@H](N)C(=O)O; Thr(3ξ) = CC(O)[C@H](N)C(=O)O; Ala(CN) = N#CC[C@H](N)C(=O)O; Dap(Me) = CNC[C@H](N)C(=O)O; Carboxymethyl = O=C(O)C*; NMeA = CN[C@@H](C)C(=O)O; Dab = NCC[C@H](N)C(=O)O; Dap = NC[C@H](N)C(=O)O
Molecular target: T1, PE-labeled human PD-L1-Ig binding to Jurkat cell line over-expressing human PD-1 (Jurkat-PD-1) (Homo sapiens, UniProt Q15116)
T1 construct: expressed in transfected cells; host or cells: Jurkat
T1 sequence (Q15116 25-288): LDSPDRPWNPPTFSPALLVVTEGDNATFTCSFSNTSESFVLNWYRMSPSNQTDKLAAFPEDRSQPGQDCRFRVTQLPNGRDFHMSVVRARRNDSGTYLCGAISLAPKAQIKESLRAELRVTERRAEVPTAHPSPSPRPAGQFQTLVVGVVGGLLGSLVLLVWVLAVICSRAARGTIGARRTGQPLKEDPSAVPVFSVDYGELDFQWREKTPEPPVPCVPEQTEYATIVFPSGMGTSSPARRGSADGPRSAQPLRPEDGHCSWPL
Experiment: Jurkat-PD-1 Cell Binding High-Content Screening Assay (CBA): Method 1
Settings: Jurkat-hPD-1 cells, PE-labeled PD-L1-Ig 20 nM final; read-out: Jurkat HPDL1 PD1 IC50 (uM) (Method 1)

Row | Structure (SMILES) | IC50 [µM]
1 | COc1cccc(C[C@@H]2NC(=O)[C@H](CN)NC(=O)CSC[C@@H](C(=O)NCC(N)=O)NC(=O)[C@H](CO)NC(=O)[C@H](C(C)C)NC(=O)[C@H](CC(C)C)NC(=O)[C@H](CC(N)=O)NC(=O)[C@@H](CC(C)C)NC(=O)[C@H](C)N(C)C(=O)[C@H](C(C)C)NC(=O)[C@H](Cc3ccc(-c4ccccc4)cc3)NC(=O)[C@H](CC(C)C)NC(=O)[C@H](Cc3c[nH]c4ccccc34)NC(=O)[C@H](CC(=O)O)NC2=O)c1 [Compound 1522] ({CH2CO}-[Dap][Phe(3-OMe)]DWL[Bip]V[NMeA][dL]NLVSCG-NH2; thioether N-14) | 0.05
2 | CC(C)C[C@@H]1NC(=O)[C@H](CCN)NC(=O)[C@@H](CC(C)C)NC(=O)[C@H](C)N(C)C(=O)[C@H](CCCNC(N)=O)NC(=O)[C@H](Cc2ccc(-c3ccccc3)cc2)NC(=O)[C@H](C(C)C)NC(=O)[C@H](Cc2c[nH]c3ccccc23)NC(=O)[C@H](CC(=O)O)NC(=O)[C@H](Cc2ccc(O)cc2)NC(=O)[C@H](Cc2ccc(OCC(=O)O)cc2)NC(=O)CSC[C@@H](C(=O)N[C@@H](C)C(N)=O)NC(=O)[C@H]([C@@H](C)O)NC(=O)[C@H](C(C)C)NC1=O [Compound 1324] ({CH2CO}-Y(Carboxymethyl)YDWV[Bip][Cit][NMeA][dL][Dab]LVTCA-NH2; thioether N-14) | 0.03
3 | CC(C)C[C@@H]1NC(=O)[C@H](Cc2c[nH]c3ccccc23)NC(=O)[C@H](CC(=O)O)NC(=O)[C@H](Cc2ccc(O)cc2)NC(=O)[C@H](Cc2ccccc2)NC(=O)CSC[C@@H](C(=O)N[C@@H](C)C(N)=O)NC(=O)[C@H](CO)NC(=O)[C@H](C(C)C)NC(=O)[C@H](CC(C)C)NC(=O)[C@H](CC(N)=O)NC(=O)[C@@H](CCCNC(=N)N)NC(=O)[C@H](C)N(C)C(=O)[C@H](C(C)C)NC(=O)[C@H](Cc2ccc(-c3ccccc3)cc2)NC1=O [Compound 1804] ({CH2CO}-FYDWL[Bip]V[NMeA][dR]NLVSCA-NH2; thioether N-14) | 0.21
4 | CC[C@H](C)[C@@H]1NC(=O)[C@H](Cc2ccc(-c3ccccc3)cc2)NC(=O)[C@H](C(C)C)NC(=O)[C@H](Cc2c[nH]c3ccccc23)NC(=O)[C@H](CC(=O)O)NC(=O)[C@H](Cc2ccc(O)cc2)NC(=O)[C@H](Cc2cccnc2)NC(=O)CSC[C@@H](C(=O)N[C@@H](C)C(N)=O)NC(=O)[C@H]([C@@H](C)O)NC(=O)[C@H](C(C)C)NC(=O)[C@H](CC(C)C)NC(=O)[C@H](CCN)NC(=O)[C@@H](CC(C)C)NC(=O)[C@H](C)N(C)C1=O [Compound 1401] ({CH2CO}-[3Pal]YDWV[Bip]I[NMeA][dL][Dab]LVTCA-NH2; thioether N-14) | 0.01
5 | CC(C)C[C@@H]1NC(=O)[C@H](Cc2c[nH]c3ccccc23)NC(=O)[C@H](CC(=O)O)NC(=O)[C@H](Cc2ccc(OCC(=O)O)cc2)NC(=O)[C@H](C(C)O)NC(=O)CSC[C@@H](C(N)=O)NC(=O)[C@H](CO)NC(=O)[C@H](C(C)C)NC(=O)[C@H](CC2CCCCC2)NC(=O)[C@H](Cc2cnc[nH]2)NC(=O)[C@@H](CC(C)C)NC(=O)[C@H](C)N(C)C(=O)[C@H](C(C)C)NC(=O)[C@H](Cc2ccc(-c3ccccc3)cc2)NC1=O (stereo partly drawn) [Compound 2253] ({CH2CO}-[Thr(3ξ)]Y(Carboxymethyl)DWL[Bip]V[NMeA][dL]H[Cha]VSC-NH2; thioether N-14) | 0.04
6 | Cc1cccc(C[C@@H]2NC(=O)[C@H](CC(=O)O)NC(=O)[C@H](Cc3ccc(OCC(=O)O)cc3)NC(=O)[C@H](C(C)O)NC(=O)CSC[C@@H](C(=O)N[C@@H](CCN)C(N)=O)NC(=O)[C@H](Cc3cnc[nH]3)NC(=O)[C@H](C(C)(C)O)NC(=O)[C@H](CC3CCCCC3)NC(=O)[C@H](CCN)NC(=O)[C@@H](CC(C)C)NC(=O)[C@H](C)N(C)C(=O)[C@H](Cc3ccc(C(N)=O)cc3)NC(=O)[C@H](Cc3ccc(-c4ccccc4)cc3)NC(=O)[C@H](Cc3ccc(OCC(=O)O)cc3)NC2=O)c1 (stereo partly drawn) [Compound 2158] ({CH2CO}-[Thr(3ξ)]Y(Carboxymethyl)D[Phe(3-Me)]Y(Carboxymethyl)[Bip][Phe(4-CONH2)][NMeA][dL][Dab][Cha][Val(3-OH)]HC[Dab]-NH2; thioether N-14) | 0.02
7 | CC(C)C[C@@H]1NC(=O)[C@H](CCCNC(=N)N)NC(=O)C(Cc2c[nH]c3ccccc23)NC(=O)[C@H](C)N(C)C(=O)[C@H](CCCNC(=N)N)NC(=O)[C@H](Cc2ccc(-c3ccccc3)cc2)NC(=O)[C@H](C(C)C)NC(=O)[C@H](Cc2c[nH]c3ccccc23)NC(=O)[C@H](CC(=O)O)NC(=O)[C@H](Cc2ccc(O)cc2)NC(=O)[C@H](Cc2ccccc2)NC(=O)CSC[C@@H](C(=O)NCC(N)=O)NC(=O)[C@H](CO)NC(=O)[C@H](C(C)C)NC1=O (stereo partly drawn) [Compound 1021] ({CH2CO}-FYDWV[Bip]R[NMeA][ξW]RLVSCG-NH2; thioether N-14) | 0.14
8 | CCC(C)[C@@H]1NC(=O)[C@H](Cc2ccc(-c3ccccc3)cc2)NC(=O)[C@H](C(C)C)NC(=O)[C@H](Cc2c[nH]c3ccccc23)NC(=O)[C@H](CC(=O)O)NC(=O)[C@H](Cc2ccc(OCC(=O)O)cc2)NC(=O)[C@H](CNC)NC(=O)CSC[C@@H](C(=O)N[C@@H](CC(N)=O)C(N)=O)NC(=O)[C@H](C(C)O)NC(=O)[C@H](C(C)C)NC(=O)[C@H](CC2CCCCC2)NC(=O)[C@H](CN)NC(=O)[C@@H](CC(C)C)NC(=O)[C@H](C)N(C)C1=O (stereo partly drawn) [Compound 2078] ({CH2CO}-[Dap(Me)]Y(Carboxymethyl)DWV[Bip][Ile(3ξ)][NMeA][dL][Dap][Cha]V[Thr(3ξ)]CN-NH2; thioether N-14) | 0.02
9 | CC(=O)NCCCC[C@@H]1NC(=O)[C@H](C(C)C)NC(=O)[C@H](CC2CCCCC2)NC(=O)[C@H](CCN)NC(=O)[C@@H](CC(C)C)NC(=O)[C@H](C)N(C)C(=O)[C@H](Cc2cnc[nH]2)NC(=O)[C@H](Cc2ccc(-c3ccccc3)cc2)NC(=O)[C@H](C(C)C)NC(=O)[C@H](Cc2cccc(C)c2)NC(=O)[C@H](CC(=O)O)NC(=O)[C@H](Cc2ccc(OCC(=O)O)cc2)NC(=O)[C@H](Cc2ccc(OCC(=O)O)cc2)NC(=O)CSC[C@@H](C(N)=O)NC1=O [Compound 2262] ({CH2CO}-Y(Carboxymethyl)Y(Carboxymethyl)D[Phe(3-Me)]V[Bip]H[NMeA][dL][Dab][Cha]VK(Ac)C-NH2; thioether N-14) | 0.01
10 | CC(C)C[C@@H]1NC(=O)[C@H](CCN)NC(=O)[C@@H](CC(C)C)NC(=O)[C@H](C)N(C)C(=O)[C@H](CCCNC(N)=O)NC(=O)[C@H](Cc2ccc(-c3ccccc3)cc2)NC(=O)[C@H](C(C)C)NC(=O)[C@H](Cc2c[nH]c3ccccc23)NC(=O)[C@H](CC(=O)O)NC(=O)[C@H](Cc2ccc(O)cc2)NC(=O)[C@H](Cc2ccc(C(=O)O)cc2)NC(=O)CSC[C@@H](C(=O)N[C@@H](C)C(N)=O)NC(=O)[C@H]([C@@H](C)O)NC(=O)[C@H](C(C)C)NC1=O [Compound 1326] ({CH2CO}-[Phe(4-COOH)]YDWV[Bip][Cit][NMeA][dL][Dab]LVTCA-NH2; thioether N-14) | 0.02
11 | CC(C)C[C@@H]1NC(=O)[C@H](Cc2c[nH]c3ccccc23)NC(=O)[C@H](CC(=O)O)NC(=O)[C@H](Cc2ccc(O)cc2)NC(=O)[C@H](Cc2ccccc2)NC(=O)CSC[C@@H](C(=O)NCC(N)=O)NC(=O)[C@H](CO)NC(=O)[C@H](C(C)C)NC(=O)[C@H](CC(C)C)NC(=O)[C@H](CC(N)=O)NC(=O)[C@@H](Cc2cnc[nH]2)NC(=O)[C@H](C)N(C)C(=O)[C@H](C(C)C)NC(=O)[C@H](Cc2ccc(-c3ccccc3)cc2)NC1=O [Compound 1797] ({CH2CO}-FYDWL[Bip]V[NMeA][dH]NLVSCG-NH2; thioether N-14) | 0.16
12 | CCC(C)[C@@H]1NC(=O)[C@H](Cc2ccc(-c3ccccc3)cc2)NC(=O)[C@H](C(C)C)NC(=O)[C@H](Cc2c[nH]c3ccccc23)NC(=O)[C@H](CC(=O)O)NC(=O)[C@H](Cc2ccc(O)cc2)NC(=O)[C@H](CCN)NC(=O)CSC[C@@H](C(=O)NC(C(N)=O)C2CCOCC2)NC(=O)[C@H](C(C)O)NC(=O)[C@H](C(C)(C)O)NC(=O)[C@H](CC2CCCCC2)NC(=O)[C@H](CC(N)=O)NC(=O)[C@@H](CC(C)C)NC(=O)[C@H](C)N(C)C1=O (stereo partly drawn) [Compound 2175] ({CH2CO}-[Dab]YDWV[Bip][Ile(3ξ)][NMeA][dL]N[Cha][Val(3-OH)][Thr(3ξ)]C[X49]-NH2; thioether N-14) | 0.23
13 | Cc1cccc(C[C@@H]2NC(=O)[C@H](CC(=O)O)NC(=O)[C@H](Cc3ccc(OCC(=O)O)cc3)NC(=O)[C@H]([C@@H](C)O)NC(=O)CSC[C@@H](C(N)=O)NC(=O)[C@H](CCC(=O)O)NC(=O)[C@H](C(C)C)NC(=O)[C@H](CC3CCCCC3)NC(=O)[C@H](CCN)NC(=O)[C@@H](CC(C)C)NC(=O)[C@H](C)N(C)C(=O)[C@H](Cc3ccc(OCC(=O)O)cc3)NC(=O)[C@H](Cc3ccc(-c4ccccc4)cc3)NC(=O)[C@H](Cc3ccc(OCC(=O)O)cc3)NC2=O)c1 [Compound 1673] ({CH2CO}-TY(Carboxymethyl)D[Phe(3-Me)]Y(Carboxymethyl)[Bip]Y(Carboxymethyl)[NMeA][dL][Dab][Cha]VEC-NH2; thioether N-14) | 0.09
14 | CC[C@H](C)[C@@H]1NC(=O)[C@H](Cc2ccc(-c3ccccc3)cc2)NC(=O)[C@H](C(C)C)NC(=O)[C@H](Cc2c[nH]c3ccccc23)NC(=O)[C@H](CC(=O)O)NC(=O)[C@H](Cc2ccc(O)cc2)NC(=O)[C@H](Cc2ccncc2)NC(=O)CSC[C@@H](C(=O)N[C@@H](C)C(N)=O)NC(=O)[C@H]([C@@H](C)O)NC(=O)[C@H](C(C)C)NC(=O)[C@H](CC(C)C)NC(=O)[C@H](CCN)NC(=O)[C@@H](CC(C)C)NC(=O)[C@H](C)N(C)C1=O [Compound 1400] ({CH2CO}-[4Pal]YDWV[Bip]I[NMeA][dL][Dab]LVTCA-NH2; thioether N-14) | 0.02
15 | CCC(C)[C@@H]1NC(=O)[C@H](Cc2ccc(-c3ccccc3)cc2)NC(=O)[C@H](CC(C)C)NC(=O)[C@H](Cc2c[nH]c3ccccc23)NC(=O)[C@H](CC(=O)O)NC(=O)[C@H](Cc2ccc(OCC(=O)O)cc2)NC(=O)[C@H](C(C)O)NC(=O)CSC[C@@H](C(=O)N[C@@H](CC(N)=O)C(=O)O)NC(=O)[C@H](CC#N)NC(=O)[C@H](C(C)C)NC(=O)[C@H](CC(C)C)NC(=O)[C@H](CCN)NC(=O)[C@@H](CC(C)C)NC(=O)[C@H](C)N(C)C1=O (stereo partly drawn) [Compound 2226] ({CH2CO}-[Thr(3ξ)]Y(Carboxymethyl)DWL[Bip][Ile(3ξ)][NMeA][dL][Dab]LV[Ala(CN)]CN-OH; thioether N-14) | 0.06

Reference: patent publication US20240409585A1, “MACROCYCLIC IMMUNOMODULATORS” (priority 2021, published 2024)
